# Publication PMC3540847 (Journal of Lipid Research, 2012)
# Where a name gives a salt, the structure may show the parent alone.
# Columns and labels:
# skAsbt = molecular target: T1, skAsbt (Leucoraja erinaceus, UniProt I4CJQ7); assay: competition of 3H-TCA uptake, transfected COS-7 cells; format: cell-based; conditions: 10 μM 3H-TCA, Na+ medium, 10 min
# T1 sequence (I4CJQ7 1-393): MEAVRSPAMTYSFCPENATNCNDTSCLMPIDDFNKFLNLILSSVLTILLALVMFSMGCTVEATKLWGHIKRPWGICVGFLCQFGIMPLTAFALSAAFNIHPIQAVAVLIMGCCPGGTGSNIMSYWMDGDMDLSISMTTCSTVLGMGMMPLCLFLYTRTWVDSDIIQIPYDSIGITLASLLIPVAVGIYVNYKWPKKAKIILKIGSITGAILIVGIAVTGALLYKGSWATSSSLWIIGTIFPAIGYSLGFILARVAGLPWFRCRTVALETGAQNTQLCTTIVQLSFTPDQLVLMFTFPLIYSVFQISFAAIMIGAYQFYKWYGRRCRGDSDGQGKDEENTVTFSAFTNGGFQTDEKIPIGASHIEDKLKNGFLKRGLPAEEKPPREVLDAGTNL
# hASBT = molecular target: T2, hASBT (Homo sapiens, UniProt Q12908); assay: as above; format: cell-based; conditions: 10 μM 3H-TCA, Na+ medium, 10 min
# T2 sequence (Q12908 1-348): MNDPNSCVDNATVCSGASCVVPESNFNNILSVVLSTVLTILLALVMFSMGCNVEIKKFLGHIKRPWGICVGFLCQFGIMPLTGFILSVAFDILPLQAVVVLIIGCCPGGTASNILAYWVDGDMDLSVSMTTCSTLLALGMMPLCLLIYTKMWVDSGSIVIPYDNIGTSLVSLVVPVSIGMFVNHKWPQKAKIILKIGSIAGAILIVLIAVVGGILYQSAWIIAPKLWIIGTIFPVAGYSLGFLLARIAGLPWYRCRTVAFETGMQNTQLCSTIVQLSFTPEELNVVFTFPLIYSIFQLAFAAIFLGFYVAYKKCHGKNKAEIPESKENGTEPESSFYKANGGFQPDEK
Structure (SMILES),inhibition of uptake at 100 μM (skAsbt),inhibition of uptake at 100 μM (hASBT)
O=C1OC(c2ccc(O)c(S(=O)(=O)O)c2)(c2ccc(O)c(S(=O)(=O)O)c2)c2c(Br)c(Br)c(Br)c(Br)c21 [bromosulfophtalein],bromosulfophtalein significantly inhibited both transporters,bromosulfophtalein significantly inhibited both transporters
C[C@H](CCCOS(=O)(=O)O)[C@H]1CC[C@H]2[C@@H]3[C@H](O)C[C@H]4C[C@H](O)CC[C@]4(C)[C@H]3C[C@H](O)[C@]12C [5α-PZS],significantly reduced ^3H-TCA transport activity in both skAsbt and hASBT,significantly reduced ^3H-TCA transport activity in both skAsbt and hASBT
C[C@H](CCC(=O)NCCS(=O)(=O)O)[C@H]1CC[C@H]2[C@@H]3[C@@H](O)C[C@@H]4C[C@H](O)CC[C@]4(C)[C@H]3CC[C@]12C [TUDCA],–,TUDCA effectively reduced ^3H-TCA transport activity in hASBT but not in skAsbt
C[C@H](CCC(=O)NCCS(=O)(=O)O)[C@H]1CC[C@H]2[C@@H]3CC[C@@H]4C[C@H](OS(=O)(=O)O)CC[C@]4(C)[C@H]3CC[C@]12C [taurolithocholic acid-3-sulfate],significantly reduced ^3H-TCA transport activity in both skAsbt and hASBT,–
C[C@H](CCCC(CO)COS(=O)(=O)O)[C@H]1CC[C@H]2[C@@H]3[C@H](O)C[C@H]4C[C@H](O)CC[C@]4(C)[C@H]3C[C@H](O)[C@]12C (stereo partly drawn) [5α-cyprinol sulfate],significantly reduced ^3H-TCA transport activity in both skAsbt and hASBT,significantly reduced ^3H-TCA transport activity in both skAsbt and hASBT
C[C@H](CCC(=O)NCC(=O)O)[C@H]1CC[C@H]2[C@@H]3[C@H](O)C[C@@H]4C[C@H](O)CC[C@]4(C)[C@H]3CC[C@]12C [GCDCA],significantly reduced ^3H-TCA transport activity in both skAsbt and hASBT,significantly reduced ^3H-TCA transport activity in both skAsbt and hASBT
C[C@H](CCC(=O)NCCS(=O)(=O)O)[C@H]1CC[C@H]2[C@@H]3CC[C@@H]4C[C@H](O)CC[C@]4(C)[C@H]3CC[C@]12C [taurolithocholic acid],significantly reduced ^3H-TCA transport activity in both skAsbt and hASBT,significantly reduced ^3H-TCA transport activity in both skAsbt and hASBT
C[C@H](CCC(=O)NCCS(=O)(=O)O)[C@H]1CC[C@H]2[C@@H]3[C@H](O)C[C@@H]4C[C@H](O)CC[C@]4(C)[C@H]3CC[C@]12C [TCDCA],significantly reduced ^3H-TCA transport activity in both skAsbt and hASBT,significantly reduced ^3H-TCA transport activity in both skAsbt and hASBT
